Experiments:
Experiment in all cases: relative viability (nuclei count vs DMSO), 5 days (fraction); higher = more cells survive
201T = tested on: 201T
Summary of the method: (§1)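 Values are medians from duplicate plates. Each reflects relative viability, defined as the nuclei count of treated wells over that of vehicle wells. Lung cancer cell lines in 1536-well plates were pin-tool dosed one day after seeding with one drug alone or with a fixed anchor-drug dose plus five library-drug doses (not always all listed) in √10 steps, then fixed, stained and imaged at 4× after 5 days.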

A-427 = tested on: A-427
Summary of the method: as §1

COR-L23 = tested on: COR-L23
Summary of the method: as §1

H3255 = tested on: H3255
Summary of the method: as §1

HCC-44 = tested on: HCC-44
Summary of the method: as §1

LC-2-ad = tested on: LC-2-ad
Summary of the method: as §1

LCLC-103H = tested on: LCLC-103H
Summary of the method: as §1

LCLC-97TM1 = tested on: LCLC-97TM1
Summary of the method: as §1

LK-2 = tested on: LK-2
Summary of the method: as §1

LU99A = tested on: LU99A
Summary of the method: as §1

NCI-H1563 = tested on: NCI-H1563
Summary of the method: as §1

NCI-H1650 = tested on: NCI-H1650
Summary of the method: as §1

NCI-H1793 = tested on: NCI-H1793
Summary of the method: as §1

NCI-H2228 = tested on: NCI-H2228
Summary of the method: as §1

NCI-H2347 = tested on: NCI-H2347
Summary of the method: as §1

NCI-H23 = tested on: NCI-H23
Summary of the method: as §1

NCI-H460 = tested on: NCI-H460
Summary of the method: as §1

NCI-H596 = tested on: NCI-H596
Summary of the method: as §1

NCI-H727 = tested on: NCI-H727
Summary of the method: as §1

PC-14 = tested on: PC-14
Summary of the method: as §1

PC-3 [JPC-3] = tested on: PC-3 [JPC-3]
Summary of the method: as §1

SW 1573 = tested on: SW 1573
Summary of the method: as §1

SW 900 = tested on: SW 900
Summary of the method: as §1

Molecule `CCN(CC)CCCCNc1ncc2cc(-c3cc(OC)cc(OC)c3)c(NC(=O)NC(C)(C)C)nc2n1` + COc1cccc2cc(-c3nc([C@H]4CC[C@H](C(=O)O)CC4)n4ncnc(N)c34)[nH]c12 [OSI-027] (partner 0.5 µM) has a relative viability (201T; first compound 0.01 µM) of 0.615, a relative viability (201T; first compound 0.03162 µM) of 0.658 and a relative viability (201T; first compound 0.1 µM) of 0.927. For the same molecule, the relative viability (201T; first compound 0.3162 µM) was 0.798, the relative viability (201T; first compound 1 µM) was 0.607 and the relative viability (A-427; first compound 0.01 µM) was 0.457. It also gave a relative viability (A-427; first compound 0.03162 µM) of 0.435, a relative viability (A-427; first compound 0.1 µM) of 0.427 and a relative viability (A-427; first compound 0.3162 µM) of 0.364. It also gave a relative viability (A-427; first compound 1 µM) of 0.298, a relative viability (COR-L23; first compound 0.01 µM) of 1.19 and a relative viability (COR-L23; first compound 0.03162 µM) of 0.873. For the same molecule, the relative viability (COR-L23; first compound 0.1 µM) was 1.06, the relative viability (COR-L23; first compound 0.3162 µM) was 1.07 and the relative viability (COR-L23; first compound 1 µM) was 0.503. It also gave a relative viability (H3255; first compound 0.01 µM) of 0.524, a relative viability (H3255; first compound 0.03162 µM) of 0.547 and a relative viability (H3255; first compound 0.1 µM) of 0.698. The relative viability (H3255; first compound 0.3162 µM) was 0.448, the relative viability (H3255; first compound 1 µM) was 0.538 and the relative viability (HCC-44; first compound 0.01 µM) was 0.436. It also gave a relative viability (HCC-44; first compound 0.03162 µM) of 0.587, a relative viability (HCC-44; first compound 0.1 µM) of 0.573 and a relative viability (HCC-44; first compound 0.3162 µM) of 0.519. The relative viability (HCC-44; first compound 1 µM) was 0.479, the relative viability (LC-2-ad; first compound 0.01 µM) was 0.776 and the relative viability (LC-2-ad; first compound 0.03162 µM) was 1.05. The relative viability (LC-2-ad; first compound 0.1 µM) was 0.909, the relative viability (LC-2-ad; first compound 0.3162 µM) was 0.854 and the relative viability (LC-2-ad; first compound 1 µM) was 0.75. For the same molecule, the relative viability (LCLC-103H; first compound 0.01 µM) was 0.455, the relative viability (LCLC-103H; first compound 0.03162 µM) was 0.482 and the relative viability (LCLC-103H; first compound 0.1 µM) was 0.456. It also gave a relative viability (LCLC-103H; first compound 0.3162 µM) of 0.386, a relative viability (LCLC-103H; first compound 1 µM) of 0.339 and a relative viability (LCLC-97TM1; first compound 0.01 µM) of 0.553. It also gave a relative viability (LCLC-97TM1; first compound 0.03162 µM) of 0.518, a relative viability (LCLC-97TM1; first compound 0.1 µM) of 0.513 and a relative viability (LCLC-97TM1; first compound 0.3162 µM) of 0.619. It also gave a relative viability (LCLC-97TM1; first compound 1 µM) of 0.367, a relative viability (LK-2; first compound 0.01 µM) of 0.193 and a relative viability (LK-2; first compound 0.03162 µM) of 0.192. For the same molecule, the relative viability (LK-2; first compound 0.1 µM) was 0.163, the relative viability (LK-2; first compound 0.3162 µM) was 0.165 and the relative viability (LK-2; first compound 1 µM) was 0.196. The relative viability (LU99A; first compound 0.01 µM) was 0.292, the relative viability (LU99A; first compound 0.03162 µM) was 0.259 and the relative viability (LU99A; first compound 0.1 µM) was 0.309. It also gave a relative viability (LU99A; first compound 0.3162 µM) of 0.291, a relative viability (LU99A; first compound 1 µM) of 0.302 and a relative viability (NCI-H1563; first compound 0.01 µM) of 0.766. The relative viability (NCI-H1563; first compound 0.03162 µM) was 0.723, the relative viability (NCI-H1563; first compound 0.1 µM) was 0.835 and the relative viability (NCI-H1563; first compound 0.3162 µM) was 0.768. The relative viability (NCI-H1563; first compound 1 µM) was 0.584, the relative viability (NCI-H1650; first compound 0.01 µM) was 0.7 and the relative viability (NCI-H1650; first compound 0.03162 µM) was 0.702. The relative viability (NCI-H1650; first compound 0.1 µM) was 0.649, the relative viability (NCI-H1650; first compound 0.3162 µM) was 0.624 and the relative viability (NCI-H1650; first compound 1 µM) was 0.4. For the same molecule, the relative viability (NCI-H1793; first compound 0.01 µM) was 0.238, the relative viability (NCI-H1793; first compound 0.03162 µM) was 0.253 and the relative viability (NCI-H1793; first compound 0.1 µM) was 0.318. It also gave a relative viability (NCI-H1793; first compound 0.3162 µM) of 0.307, a relative viability (NCI-H1793; first compound 1 µM) of 0.206 and a relative viability (NCI-H2228; first compound 0.01 µM) of 0.599. The relative viability (NCI-H2228; first compound 0.03162 µM) was 0.505, the relative viability (NCI-H2228; first compound 0.1 µM) was 0.582 and the relative viability (NCI-H2228; first compound 0.3162 µM) was 0.63. It also gave a relative viability (NCI-H2228; first compound 1 µM) of 0.363, a relative viability (NCI-H2347; first compound 0.01 µM) of 0.419 and a relative viability (NCI-H2347; first compound 0.03162 µM) of 0.38. The relative viability (NCI-H2347; first compound 0.1 µM) was 0.408, the relative viability (NCI-H2347; first compound 0.3162 µM) was 0.381 and the relative viability (NCI-H2347; first compound 1 µM) was 0.358. It also gave a relative viability (NCI-H23; first compound 0.01 µM) of 0.566, a relative viability (NCI-H23; first compound 0.03162 µM) of 0.679 and a relative viability (NCI-H23; first compound 0.1 µM) of 0.738. The relative viability (NCI-H23; first compound 0.3162 µM) was 0.731, the relative viability (NCI-H23; first compound 1 µM) was 0.623 and the relative viability (NCI-H460; first compound 0.01 µM) was 0.879. It also gave a relative viability (NCI-H460; first compound 0.03162 µM) of 0.677, a relative viability (NCI-H460; first compound 0.1 µM) of 0.859 and a relative viability (NCI-H460; first compound 0.3162 µM) of 0.815. It also gave a relative viability (NCI-H460; first compound 1 µM) of 0.291, a relative viability (NCI-H596; first compound 0.01 µM) of 0.63 and a relative viability (NCI-H596; first compound 0.03162 µM) of 0.74. The relative viability (NCI-H596; first compound 0.1 µM) was 0.758, the relative viability (NCI-H596; first compound 0.3162 µM) was 0.709 and the relative viability (NCI-H596; first compound 1 µM) was 0.528. For the same molecule, the relative viability (NCI-H727; first compound 0.01 µM) was 0.673, the relative viability (NCI-H727; first compound 0.03162 µM) was 0.591 and the relative viability (NCI-H727; first compound 0.1 µM) was 0.623. The relative viability (NCI-H727; first compound 0.3162 µM) was 0.842, the relative viability (NCI-H727; first compound 1 µM) was 0.498 and the relative viability (PC-14; first compound 0.01 µM) was 0.838. The relative viability (PC-14; first compound 0.03162 µM) was 1.04, the relative viability (PC-14; first compound 0.1 µM) was 1.12 and the relative viability (PC-14; first compound 0.3162 µM) was 0.974. For the same molecule, the relative viability (PC-14; first compound 1 µM) was 0.91, the relative viability (PC-3 [JPC-3]; first compound 0.01 µM) was 0.753 and the relative viability (PC-3 [JPC-3]; first compound 0.03162 µM) was 0.796. For the same molecule, the relative viability (PC-3 [JPC-3]; first compound 0.1 µM) was 0.782, the relative viability (PC-3 [JPC-3]; first compound 0.3162 µM) was 1.02 and the relative viability (PC-3 [JPC-3]; first compound 1 µM) was 0.585. For the same molecule, the relative viability (SW 1573; first compound 0.01 µM) was 0.578, the relative viability (SW 1573; first compound 0.03162 µM) was 0.693 and the relative viability (SW 1573; first compound 0.1 µM) was 0.839. The relative viability (SW 1573; first compound 0.3162 µM) was 0.691, the relative viability (SW 1573; first compound 1 µM) was 0.629 and the relative viability (SW 900; first compound 0.01 µM) was 0.657. The relative viability (SW 900; first compound 0.03162 µM) was 0.592, the relative viability (SW 900; first compound 0.3162 µM) was 0.634 and the relative viability (SW 900; first compound 1 µM) was 0.402.

From the supplement of paper PMC10307832
